The text below walks through data of patent publication US6683028B1, “Cyclic guanidine derivatives and their use as pesticides” (Bayer Aktiengesellschaft, priority 1999, dated 2004).

The subject of series [1] is mustard beetle larvae (Phaedon cochleariae). Nature of the series: Phaedon Larvae Test. Format: in vivo. The note with it: active compound concentration of 0.1%; after 7 days; cabbage leaves dipped. How it is done: (§1) Solvent: 7 parts by weight of dimethylformamide
(§2) Emulsifier: 1 part by weight of alkylaryl polyglycol ether
To produce a suitable preparation of active compound, 1 part by weight of active compound is mixed with the stated amount of solvent and the stated amount of emulsifier, and the concentrate is diluted with water to the desired concentration.
Cabbage leaves (Brassica oleracea) are treated by being dipped into the preparation of active compound of the desired concentration and are populated with mustard beetle larvae (Phaedon cochleariae) while the leaves are still moist.
After the desired period of time, the kill in % is determined. 100% means that all beetle larvae have been killed; 0% means that none of the beetle larvae have been killed.

Series [2] concerns peach aphid (Myzus persicae). Put plainly: Myzus Test. Format: in vivo. The note with it: active compound concentration of 0.1%; after 6 days; cabbage leaves dipped. How it is done:
as §1, §2
To produce a suitable preparation of active compound, 1 part by weight of active ingredient is mixed with the stated amount of solvent and the stated amount of emulsifier, and the concentrate is diluted with water to the desired concentration.
Cabbage leaves (Brassica oleracea) which are heavily infested by the peach aphid (Myzus persicae) are treated by being dipped into the preparation of active compound of the desired concentration.
After the desired period of time, the kill in % is determined. 100% means that all aphids have been killed; 0% means that none of the aphids have been killed.

A short description of series [3]: logP determination by HPLC (EEC directive 79/831 Annex V. A8). Format: physicochemical. The note with it: pH = 2; HPLC gradient method, acetonitrile/0.1% aqueous phosphoric acid. As for the experimental part: [logP=the logP values were determined in accordance with EEC directive 79/831 Annex V. A8 by HPLC (gradient method, acetonitrile/0.1% aqueous phosphoric acid)]

The term chromatographic logP denotes a lipophilicity value derived from retention on a column. A low value points to lower lipophilicity. On to `CCCOCN1COCN(Cc2cnc(Cl)s2)C1=N[N+](=O)[O-]` [Example 1, 3-(2-chloro-thiazol-5-yl-methyl)-4-nitroimino-5-n-propoxymethyl-perhydro-1,3,5-oxadiazine], for which the kill in series [1] and in series [2] was 100% in each case. Further, the chromatographic logP in series [3] stood at 1.7.
